From ChEMBL document CHEMBL1138538, “Design, synthesis, and evaluation of 10-N-substituted acridones as novel chemosensitizers in Plasmodium falciparum” (Antimicrob Agents Chemother, 2007) come the findings set out here.

For test [1], the system named is Plasmodium falciparum. Nature of the test: microbe, parasite or virus in culture. The settings on record: Dd2, 72 h.
In test [2] the test system is Plasmodium falciparum. Nature of the test: microbe, parasite or virus in culture. As to conditions: D6, 72 h.
A short description of the next test: cells. As to conditions: Mus musculus, C57BL/6J, Splenocyte, 72 h.
The target of another test is Histamine H1 receptor (Homo sapiens, UniProt P35367). Nature of the test: biochemical. The test is classed as cell-based, CHO.
Histamine H1 receptor, sequence (P35367 whole entry): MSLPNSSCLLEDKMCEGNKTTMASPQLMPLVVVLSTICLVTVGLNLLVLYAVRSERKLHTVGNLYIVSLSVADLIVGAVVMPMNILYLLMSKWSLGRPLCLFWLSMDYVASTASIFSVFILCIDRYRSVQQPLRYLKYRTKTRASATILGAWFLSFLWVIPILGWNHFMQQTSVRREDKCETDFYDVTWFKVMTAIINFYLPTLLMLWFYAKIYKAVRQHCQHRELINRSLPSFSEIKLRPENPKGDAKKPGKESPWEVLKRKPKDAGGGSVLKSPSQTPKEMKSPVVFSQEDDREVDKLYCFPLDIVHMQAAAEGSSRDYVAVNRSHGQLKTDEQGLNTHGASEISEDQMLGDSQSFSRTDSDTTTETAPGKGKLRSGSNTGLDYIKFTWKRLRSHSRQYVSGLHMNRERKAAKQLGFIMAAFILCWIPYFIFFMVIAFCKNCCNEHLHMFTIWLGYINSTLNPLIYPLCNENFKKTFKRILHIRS
The target in test [3] is Sodium-dependent dopamine transporter (Homo sapiens, UniProt Q01959).
Sodium-dependent dopamine transporter, sequence (Q01959 whole entry): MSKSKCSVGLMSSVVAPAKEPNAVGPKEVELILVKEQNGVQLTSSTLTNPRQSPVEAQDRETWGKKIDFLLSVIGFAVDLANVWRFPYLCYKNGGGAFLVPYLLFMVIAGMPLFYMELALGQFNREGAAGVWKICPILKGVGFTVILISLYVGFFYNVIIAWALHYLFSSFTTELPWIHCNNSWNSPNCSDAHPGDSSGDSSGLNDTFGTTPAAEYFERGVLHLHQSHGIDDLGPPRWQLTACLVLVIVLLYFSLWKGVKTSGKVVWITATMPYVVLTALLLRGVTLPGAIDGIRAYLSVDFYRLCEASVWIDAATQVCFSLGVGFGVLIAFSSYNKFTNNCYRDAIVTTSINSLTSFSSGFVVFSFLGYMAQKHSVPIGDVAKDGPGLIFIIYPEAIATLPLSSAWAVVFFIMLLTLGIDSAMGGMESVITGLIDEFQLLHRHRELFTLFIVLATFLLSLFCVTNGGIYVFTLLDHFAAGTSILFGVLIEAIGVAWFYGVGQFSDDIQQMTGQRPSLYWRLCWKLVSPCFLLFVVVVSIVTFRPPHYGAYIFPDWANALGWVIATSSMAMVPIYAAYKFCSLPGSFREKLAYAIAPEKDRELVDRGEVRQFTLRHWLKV
Description: Inhibition of [3H]dopamine uptake at human DAT expressed in HEK293 cells
In test [4] the test system is Plasmodium falciparum. The experiment in a line: Antimalarial activity after 72 hrs against chloroquine-resistant transporter 106/1'76I mutant Plasmodium falciparum infected in human erythrocytes by SYBR green assay. The test is classed as functional, organism-based.
Test [5] relates to Plasmodium falciparum. Nature of the test: Chemosensitizing activity after 72 hrs against chloroquine-sensitive Plasmodium falciparum D6 infected human erythrocytes as IC50 ratio desethylchloroquine +/- 500 nM drug by SYBR green assay. The test is classed as functional.
Test [6] relates to Plasmodium falciparum. The experiment in a line: Antimalarial activity after 72 hrs against chloroquine-resistant transporter 106/1'76T mutant Plasmodium falciparum infected human erythrocytes by SYBR green assay. The test is classed as functional, organism-based.
For test [7], the target named is Sodium-dependent noradrenaline transporter (Homo sapiens, UniProt P23975).
Sodium-dependent noradrenaline transporter, sequence (P23975 whole entry): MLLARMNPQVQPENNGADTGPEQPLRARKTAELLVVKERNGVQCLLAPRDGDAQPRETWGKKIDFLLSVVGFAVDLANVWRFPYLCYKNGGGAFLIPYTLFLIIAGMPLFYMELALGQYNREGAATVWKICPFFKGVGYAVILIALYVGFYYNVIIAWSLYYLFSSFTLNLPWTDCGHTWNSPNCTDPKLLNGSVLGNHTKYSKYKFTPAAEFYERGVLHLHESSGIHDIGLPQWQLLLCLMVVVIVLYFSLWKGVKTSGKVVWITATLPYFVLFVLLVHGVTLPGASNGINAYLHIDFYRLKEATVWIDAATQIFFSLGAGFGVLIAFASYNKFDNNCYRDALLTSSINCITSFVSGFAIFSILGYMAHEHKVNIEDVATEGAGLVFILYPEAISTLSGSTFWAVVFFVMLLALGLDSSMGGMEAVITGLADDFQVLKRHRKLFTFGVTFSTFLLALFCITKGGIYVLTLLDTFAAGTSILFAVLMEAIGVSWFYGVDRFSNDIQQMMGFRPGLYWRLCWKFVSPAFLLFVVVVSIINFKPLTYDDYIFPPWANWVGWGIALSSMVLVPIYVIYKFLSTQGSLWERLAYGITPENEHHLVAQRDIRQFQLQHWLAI
Description: Inhibition of [3H]norepinephrine uptake at human NET expressed in HEK293 cells
Test [8] deals with Plasmodium falciparum. Nature of the test: Antimalarial activity after 72 hrs against chloroquine-resistant transporter 106/1'76N mutant Plasmodium falciparum infected human erythrocytes by SYBR green assay. The test is classed as functional, organism-based.
In test [9] the test system is Plasmodium falciparum. Nature of the test: Chemosensitizing activity after 72 hrs against chloroquine-resistant Plasmodium falciparum Dd2 infected human erythrocytes as IC50 ratio quinine +/- 500 nM by SYBR green assay. The test is classed as functional.
Test [10] has as its system Plasmodium falciparum. Nature of the test: Chemosensitizing activity after 72 hrs against chloroquine-resistant Plasmodium falciparum Dd2 infected human erythrocytes as IC50 ratio desethylchloroquine +/- 500 nM by SYBR green assay. The test is classed as functional.
Test [11] concerns Plasmodium falciparum. The experiment in a line: Chemosensitizing activity after 72 hrs against chloroquine-sensitive Plasmodium falciparum D6 infected human erythrocytes as IC50 ratio quinine +/- 500 nM by SYBR green assay. The test is classed as functional.
The target of test [12] is Sodium-dependent serotonin transporter (Homo sapiens, UniProt P31645). The test is classed as cell-based, HEK293.
Sodium-dependent serotonin transporter, sequence (P31645 whole entry): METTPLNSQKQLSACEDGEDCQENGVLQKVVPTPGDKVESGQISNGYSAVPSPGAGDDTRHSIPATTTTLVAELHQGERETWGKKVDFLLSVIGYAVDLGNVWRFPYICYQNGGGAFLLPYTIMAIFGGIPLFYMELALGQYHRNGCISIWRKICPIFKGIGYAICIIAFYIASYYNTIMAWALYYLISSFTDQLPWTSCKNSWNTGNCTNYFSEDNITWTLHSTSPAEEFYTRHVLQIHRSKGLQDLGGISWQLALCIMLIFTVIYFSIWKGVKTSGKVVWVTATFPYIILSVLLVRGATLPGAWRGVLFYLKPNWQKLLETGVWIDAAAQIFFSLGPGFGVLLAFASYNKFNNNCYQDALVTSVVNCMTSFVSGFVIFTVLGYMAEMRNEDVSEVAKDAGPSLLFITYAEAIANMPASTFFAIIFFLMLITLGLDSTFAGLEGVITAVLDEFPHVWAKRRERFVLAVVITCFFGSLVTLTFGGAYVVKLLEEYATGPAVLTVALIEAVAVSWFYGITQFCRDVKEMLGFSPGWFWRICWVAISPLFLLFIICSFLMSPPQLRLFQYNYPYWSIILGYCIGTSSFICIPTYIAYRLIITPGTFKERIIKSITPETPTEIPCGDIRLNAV
Description: Inhibition of [3H]5HT uptake at human SERT expressed in HEK293 cells

Description for Histamine H1 receptor: Displacement of [3H]pyrilamine from human histamine receptor subtype 1 expressed in CHO cells
Description for cells: Cytotoxicity against C57BL/6J mouse splenocytes after 72 hrs by alamar blue assay

The IC50 is the concentration that gives 50% inhibition. In the case of `O=c1c2ccccc2n(CCCCCCCl)c2ccccc12`, the half-maximal inhibitory concentration (IC50) in the test on Plasmodium falciparum [1] worked out at 2.6 µM; with Plasmodium falciparum [2] it was 1.3 µM; in the test “cells”, 59.5 µM.
For `CCN(CC)CCCCCCn1c2ccccc2c(=O)c2ccccc21`, the IC50 against Histamine H1 receptor was 3.6 µM; in test [3] it was above 10 µM; in the test with Plasmodium falciparum [1], 2.7 µM; in the test on Plasmodium falciparum [4] it was 3.66 µM; in the test with Plasmodium falciparum [6], 4.5 µM; in the test on Plasmodium falciparum [2], 3.2 µM. Further, the IC50 in the test “cells” is 26.4 µM; in [7], above 10 µM; in the test on Plasmodium falciparum [8], 0.596 µM; in test [12], 3.5 µM. Further, the “Ratio IC50” value was determined as 0.17 in the test with Plasmodium falciparum [5], 1 with Plasmodium falciparum [9], 1.01 in the test on Plasmodium falciparum [10] and 0.3 in the test on Plasmodium falciparum [11].
Take `CCN(CC)CCCCCn1c2ccccc2c(=O)c2ccccc21`: the IC50 in test [3] is above 10 µM; in the test with Plasmodium falciparum [1], 5.8 µM; in the test on Plasmodium falciparum [2], 3.7 µM; in the test “cells”, 30.5 µM; in [7], 9.1 µM; in test [12] it was 7.8 µM.
On to `CCN(CC)CCCn1c2ccccc2c(=O)c2ccccc21`, for which the IC50 in [3] is above 10 µM; with Plasmodium falciparum [1] it was 1.6 µM; in the test with Plasmodium falciparum [2] it was 8.1 µM; in “cells” it was 22.5 µM; in test [7], above 10 µM; in test [12], above 10 µM.
Regarding `CCN(CC)CCCCn1c2ccccc2c(=O)c2ccccc21`, the IC50 was above 10 µM in test [3]; 10.2 µM in the test on Plasmodium falciparum [1]; 7.6 µM with Plasmodium falciparum [2]; 34.5 µM in the test “cells”; above 10 µM in test [7]; above 10 µM in test [12].
As for `CN(C)CCC(c1ccc(Cl)cc1)c1ccccn1` (centres undefined) [CHLORPHENIRAMINE], the concentration for half-maximal inhibition (IC50) was determined as 3.9 µM in the test on Plasmodium falciparum [1], 61.2 µM with Plasmodium falciparum [2] and 33.4 µM in “cells”.
Turning to `CCN(CC)CCn1c2ccccc2c(=O)c2ccccc21`, the IC50 in [3] is above 10 µM; with Plasmodium falciparum [1] it was 7.5 µM; with Plasmodium falciparum [2] it was 11.8 µM; in the test “cells”, 28.5 µM; in test [7] it was above 10 µM; in [12], above 10 µM.
Turning to `CCNCCCC(C)Nc1ccnc2cc(Cl)ccc12` (centres undefined) [DESETHYLCHLOROQUINE], the IC50 is 0.372 µM in the test on Plasmodium falciparum [1] and 0.0182 µM in the test on Plasmodium falciparum [2].
For `CCN(CC)CCCCCCCCn1c2ccccc2c(=O)c2ccccc21`, the figures for the 50% inhibitory concentration (IC50) in the test on Plasmodium falciparum [1], in the test on Plasmodium falciparum [2] and in “cells” were 1.8 µM, 2.6 µM and 17.6 µM, respectively.
